Assay results taken from patent US10131652B2, “Pyrimidinyloxy benzene derivatives as herbicides” (E. I. DU PONT DE NEMOURS AND COMPANY, priority 2014, dated 2018).
Read-outs that look alike come from different tables or passages of the source.

Assays:
Assay type in all cases: in vivo
[1] = test system: ragweed (common ragweed, Ambrosia elatior); experiment: Test B pre-/postemergence plant response
In short: (§1)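 Scoring used a 0–100 scale (100 = complete control) by visual comparison with untreated plants after approximately 10 days in the greenhouse. Compounds, in surfactant-containing non-phytotoxic solvent, were sprayed onto soil at planting or onto 2–10 cm seedlings.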

kochia (Kochia scoparia) = experiment: Test B pre-/postemergence plant response
In short: as §1

[2] = test system: Italian ryegrass (Lolium multiflorum); experiment: Test B pre-/postemergence plant response
In short: as §1

soybean (Glycine max) = experiment: Test D pre-/postemergence plant response; conditions: Glycine max; for plant injury at 31 g/ha: 31 g ai/ha; for plant injury at 62 g/ha: 62 g ai/ha
In short: (§2)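 0 = no effect, 100 = complete control: plants were scored this way by visual comparison with controls 13 to 15 days post-treatment. Application was preemergence to sown loam/sand pots or postemergence to 2–18 cm seedlings in peat-based mix.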

[3] = test system: morningglory (Ipomoea coccinea); experiment: Test D pre-/postemergence plant response; conditions: Ipomoea; for pest or weed control at 31 g/ha: 31 g ai/ha; for pest or weed control at 62 g/ha: 62 g ai/ha
In short: as §2

[4] = test system: pigweed (Amaranthus retroflexus); experiment: Test D pre-/postemergence plant response; conditions: Amaranthus retroflexus; for pest or weed control at 31 g/ha: 31 g ai/ha; for pest or weed control at 62 g/ha: 62 g ai/ha; for pest or weed control at 125 g/ha: 125 g ai/ha
In short: as §2

[5] = test system: barnyardgrass (Echinochloa crus-galli); experiment: Test D pre-/postemergence plant response; conditions: Echinochloa crus-galli; for pest or weed control at 16 g/ha: 16 g ai/ha; for pest or weed control at 31 g/ha: 31 g ai/ha; for pest or weed control at 62 g/ha: 62 g ai/ha; for pest or weed control at 125 g/ha: 125 g ai/ha
In short: as §2

corn (Zea mays) = experiment: Test D pre-/postemergence plant response; conditions: Zea mays; for Corn plant response rating (crop injury, 0 = no effect, 100 = complete kill) at 62 g/ha: 62 g ai/ha
In short: as §2

[6] = test system: waterhemp (common waterhemp, Amaranthus rudis); experiment: Test D pre-/postemergence plant response; conditions: Amaranthus tuberculatus, post-emergence, Postemergence
In short: as §2

[7] = 31 g ai/ha, Preemergence, 0 to 100 scale where 0 is no effect and 100 is complete control
[8] = 125 g ai/ha, postemergence, 0 to 100 scale, 0 no effect, 100 complete control
[9] = Postemergence, 31 g ai/ha, 0 to 100 scale (0 no effect, 100 complete control)
[10] = Preemergence, 125 g ai/ha, 0 to 100 scale (0 no effect, 100 complete control)
[11] = pre-emergence, Preemergence, scale 0 to 100 (0 no effect, 100 complete control), read-out: Plant response rating, Soybean
[12] = pre-emergence, Preemergence, scale 0 to 100 (0 no effect, 100 complete control), read-out: Plant response rating, Morningglory
[13] = post-emergence, Postemergence, scale 0 to 100, 0 no effect, 100 complete control, read-out: Plant response rating, Pigweed
[14] = pre-emergence, Preemergence, scale 0 to 100 (0 no effect, 100 complete control), read-out: Plant response rating, Pigweed
[15] = post-emergence, Postemergence, scale 0 to 100 (0 no effect, 100 complete control), read-out: Barnyardgrass plant response rating
[16] = post-emergence, Postemergence, scale 0 to 100, 0 no effect, 100 complete control, read-out: Plant response rating, Barnyardgrass
[17] = pre-emergence, Preemergence, scale 0 to 100 (0 no effect, 100 complete control), read-out: Plant response rating, Barnyardgrass

## Fc1cccc(Oc2ncc(Cl)cn2)c1-c1cc(C(F)F)no1 [Compound 144, 5-chloro-2-[2-[3-(difluoromethyl)-5-isoxazolyl]-3-fluorophenoxy]pyrimidine]
[1]; [7]
  Plant response rating, Ragweed: 0
[1]; [8]
  Plant response rating, Ragweed: 60
[1]; [9]
  Plant response rating, Ragweed: 20
[1]; [10]
  Ragweed plant response rating: 50
Kochia (Kochia scoparia); [7]
  Plant response rating, Kochia: 90
Kochia (Kochia scoparia); [8]
  Plant response rating, Kochia: 100
Kochia (Kochia scoparia); [9]
  Plant response rating, Kochia: 100
Kochia (Kochia scoparia); [10]
  Kochia plant response rating: 100
[2]; [7]
  Plant response rating, Ryegrass, Italian: 0
[2]; [8]
  Plant response rating, Ryegrass, Italian: 100
[2]; [9]
  Plant response rating, Ryegrass, Italian: 20
[2]; [10]
  Ryegrass, Italian plant response rating: 90
Soybean (Glycine max); post-emergence, Postemergence, scale 0 to 100 (0 no effect, 100 complete control), read-out: Soybean plant response rating
  plant injury at 31 g/ha: 80%
Soybean (Glycine max); post-emergence, Postemergence, scale 0 to 100, 0 no effect, 100 complete control, read-out: Plant response rating, Soybean
  plant injury at 62 g/ha: 95%
Soybean (Glycine max); pre-emergence, Preemergence, 125 g ai/ha, read-out: Plant response rating (scale 0 to 100), Soybean
  plant injury at 125 g/ha: 95%
Soybean (Glycine max); pre-emergence, Preemergence, 16 g ai/ha, scale 0 to 100 (0 no effect, 100 complete control), read-out: Plant response rating, Soybean
  plant injury at 16 g/ha: 35%
Soybean (Glycine max); [11]
  plant injury at 31 g/ha: 75%
  plant injury at 62 g/ha: 90%
[3]; post-emergence, Postemergence, scale 0 to 100 (0 no effect, 100 complete control), read-out: Morningglory plant response rating
  pest or weed control at 31 g/ha: 85%
[3]; post-emergence, Postemergence, scale 0 to 100, 0 no effect, 100 complete control, read-out: Plant response rating, Morningglory
  pest or weed control at 62 g/ha: 85%
[3]; pre-emergence, Preemergence, 125 g ai/ha, read-out: Plant response rating (scale 0 to 100), Morningglory
  pest or weed control at 125 g/ha: 100%
[3]; pre-emergence, Preemergence, 16 g ai/ha, scale 0 to 100 (0 no effect, 100 complete control), read-out: Plant response rating, Morningglory
  pest or weed control at 16 g/ha: 20%
[3]; [12]
  pest or weed control at 31 g/ha: 75%
  pest or weed control at 62 g/ha: 100%
[4]; post-emergence, Postemergence, scale 0 to 100 (0 no effect, 100 complete control), read-out: Pigweed plant response rating
  pest or weed control at 31 g/ha: 98%
[4]; [13]
  pest or weed control at 62 g/ha: 100%
  pest or weed control at 125 g/ha: 100%
[4]; pre-emergence, Preemergence, read-out: Plant response rating (scale 0 to 100), Pigweed
  pest or weed control at 125 g/ha: 100%
[4]; pre-emergence, Preemergence, 16 g ai/ha, scale 0 to 100 (0 no effect, 100 complete control), read-out: Plant response rating, Pigweed
  pest or weed control at 16 g/ha: 100%
[4]; [14]
  pest or weed control at 31 g/ha: 100%
  pest or weed control at 62 g/ha: 100%
[5]; [15]
  pest or weed control at 16 g/ha: 5%
  pest or weed control at 31 g/ha: 5%
[5]; [16]
  pest or weed control at 62 g/ha: 10%
  pest or weed control at 125 g/ha: 15%
[5]; pre-emergence, Preemergence, read-out: Plant response rating (scale 0 to 100), Barnyardgrass
  pest or weed control at 125 g/ha: 100%
[5]; [17]
  pest or weed control at 16 g/ha: 70%
  pest or weed control at 31 g/ha: 80%
  pest or weed control at 62 g/ha: 100%
Corn (Zea mays); post-emergence, Postemergence, 16 g ai/ha, scale 0 to 100 (0 no effect, 100 complete control), read-out: Corn plant response rating
  plant injury at 16 g/ha: 5%
Corn (Zea mays); post-emergence, Postemergence, 31 g ai/ha, scale 0 to 100 (0 no effect, 100 complete control), read-out: Corn plant response rating
  plant injury at 31 g/ha: 5%
Corn (Zea mays); post-emergence, Postemergence, scale 0 to 100, 0 no effect, 100 complete control
  Corn plant response rating (crop injury, 0 = no effect, 100 = complete kill) at 62 g/ha: 10%
Corn (Zea mays); post-emergence, Postemergence, 125 g ai/ha, scale 0 to 100, 0 no effect, 100 complete control
  Corn plant response rating (crop injury, 0 = no effect, 100 = complete kill) at 125 g/ha: 5%
Corn (Zea mays); pre-emergence, Preemergence, 125 g ai/ha, read-out: Plant response rating (scale 0 to 100), Corn
  plant injury at 125 g/ha: 65%
Corn (Zea mays); pre-emergence, Preemergence, 16 g ai/ha, scale 0 to 100 (0 no effect, 100 complete control)
  Corn plant response rating (crop injury, 0 = no effect, 100 = complete kill) at 16 g/ha: 0%
Corn (Zea mays); pre-emergence, Preemergence, 31 g ai/ha, scale 0 to 100 (0 no effect, 100 complete control)
  Corn plant response rating (crop injury, 0 = no effect, 100 = complete kill) at 31 g/ha: 5%
Corn (Zea mays); pre-emergence, Preemergence, scale 0 to 100 (0 no effect, 100 complete control)
  Corn plant response rating (crop injury, 0 = no effect, 100 = complete kill) at 62 g/ha: 15%
[6]; 31 g ai/ha, scale 0 to 100 (0 no effect, 100 complete control), read-out: Waterhemp plant response rating
  pest or weed control at 31 g/ha: 85%
[6]; 62 g ai/ha, scale 0 to 100, 0 no effect, 100 complete control, read-out: Plant response rating, Waterhemp
  pest or weed control at 62 g/ha: 100%
